In publication PMC10584882 (Communications Biology, 2023):
Values joined by “and” are separate entries in the source; they are usually repeats but may differ in a detail not shown here. Identical values can stand only once. “Also recorded” adds a separate entry of the source.

Assays:
SARS-CoV-2 [1] = experiment: Anti-viral experiment with Golden Syrian hamsters: viral load in lungs and trachea; type: in vivo, Golden Syrian hamsters (Mesocricetus auratus); conditions: 1 mg/kg s.c. daily from day 1; for RNA - lung / RNA - trachea / titer - lung / titer - trachea: individual hamsters; for viral load in trachea versus untreated group (in words): TCID50
LC-HK2 cells = experiment: Fluorescence microscopy, S-protein vesicle size in infected LC-HK2 cells; type: cell-based, human; conditions: 1.5 µM, versus control
Description: LC-HK2 was cultivated on coverslips (13 mm diameter) to approximately 80% confluence. The cells were pre-treated for 2 h with 1.5 µM of S-Calpeptin diluted in DMEM supplemented with 2.5% FBS. The compounds were removed, and SARS-CoV-2 strain diluted in DMEM supplemented with 2.5% FBS was added to LC-HK2 cells at M.O.I of 0.05, allowing absorption for 1 h. The viral inoculum was removed, and cells were gently washed with PBS without calcium and magnesium. The cells were incubated in the continued presence of 1.5 µM of S-Calpeptin diluted in DMEM supplemented with 2.5% FBS and were examined by fluorescence microscopy at the time points 32, 40, 48, 56, 64 and 72 h post-infection.
For this purpose, the cells were fixed and permeabilized with 3.7% formaldehyde solution (Sigma-Aldrich, F1635) containing 0.2% Triton X-100 in PBS 1×. […] The images were captured using fluorescence range intensity adjusted identically within each experimental series.
Vesicles size quantifications were obtained from 2D maximum projections of Z stacks exported as grayscale TIFs (16-bit depth) using Automated Image Analysis in Zen 2.6 blue software (ZEISS). […]
In the Fluorescence microscopy evaluation, the P-values were generated by unpaired t-test using GraphPad Prism version 8.00 (La Jolla, CA, USA, www.graphpad.com). […]

[2] = Anti-viral experiment with Golden Syrian hamsters: body weight; type: in vivo, Golden Syrian hamsters (Mesocricetus auratus); conditions: for body weight, individual data: individual animals
SARS-CoV-2 [3] = experiment: Cytopathic effect inhibition assay in VERO-CCL81 cells; type: cell-based; conditions: for CPE inhibition (%): VERO CCL81, two experiments, listed as S-Calpepin
CatL = target: T1, CatL (Homo sapiens, UniProt P07711); experiment: Reversibility of covalent cathepsin inhibition (CatL, 60 min incubation); type: biochemical; conditions: 1 nM CatL, 1–80 nM inhibitor, 37 °C
T1 construct: made in house
Text: We observed no increase in relative inhibition over time, thus concluding that the covalent bond between cathepsins and inhibitors is reversible.

T1 sequence (P07711 114-333): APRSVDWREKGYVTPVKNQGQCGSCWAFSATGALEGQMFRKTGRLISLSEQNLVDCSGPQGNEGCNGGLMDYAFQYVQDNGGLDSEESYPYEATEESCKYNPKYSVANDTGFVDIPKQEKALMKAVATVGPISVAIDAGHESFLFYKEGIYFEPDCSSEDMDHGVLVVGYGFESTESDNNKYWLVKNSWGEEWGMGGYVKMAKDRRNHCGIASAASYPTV

Structure (SMILES): CCCC[C@H](NC(=O)[C@H](CC(C)C)NC(=O)OCc1ccccc1)C(O)S(=O)(=O)[O-].[Na+] (stereo partly shown) [S-Calpeptin]
- RNA - lung (SARS-CoV-2 [1]; day 3 p.i., 1 mg/kg): 2.194 SARS-CoV-2 RNA copies/β actin RNA copies and 2.076 SARS-CoV-2 RNA copies/β actin RNA copies and 2.135 SARS-CoV-2 RNA copies/β actin RNA copies and 5.784 SARS-CoV-2 RNA copies/β actin RNA copies and 2.611 SARS-CoV-2 RNA copies/β actin RNA copies
- RNA - trachea (SARS-CoV-2 [1]; day 3 p.i., 1 mg/kg): 2.441 SARS-CoV-2 RNA copies/β actin RNA copies and 1.131 SARS-CoV-2 RNA copies/β actin RNA copies and 3.086 SARS-CoV-2 RNA copies/β actin RNA copies and 1.769 SARS-CoV-2 RNA copies/β actin RNA copies and 1.594 SARS-CoV-2 RNA copies/β actin RNA copies
- titer - lung (SARS-CoV-2 [1]; day 3 p.i., 1 mg/kg): 10.089 log TCID50/g and 9.011 log TCID50/g and 10.277 log TCID50/g and 9.5756 log TCID50/g and 8.981 log TCID50/g
- titer - trachea (SARS-CoV-2 [1]; day 3 p.i., 1 mg/kg): 5.2099 log TCID50/g and 3.791 log TCID50/g and 5.949 log TCID50/g and 7.023 log TCID50/g and 7.625 log TCID50/g
- RNA - lung (SARS-CoV-2 [1]; day 5 p.i., 1 mg/kg): 2.363 SARS-CoV-2 RNA copies/β actin RNA copies and 1.994 SARS-CoV-2 RNA copies/β actin RNA copies and 2.073 SARS-CoV-2 RNA copies/β actin RNA copies and 2.178 SARS-CoV-2 RNA copies/β actin RNA copies and 1.943 SARS-CoV-2 RNA copies/β actin RNA copies
- RNA - trachea (SARS-CoV-2 [1]; day 5 p.i., 1 mg/kg): 1.729 SARS-CoV-2 RNA copies/β actin RNA copies and 2.0935 SARS-CoV-2 RNA copies/β actin RNA copies and 2.166 SARS-CoV-2 RNA copies/β actin RNA copies and 1.097 SARS-CoV-2 RNA copies/β actin RNA copies and 1.597 SARS-CoV-2 RNA copies/β actin RNA copies
- titer - lung (SARS-CoV-2 [1]; day 5 p.i., 1 mg/kg): 7.002 log TCID50/g and 7.059 log TCID50/g and 6.976 log TCID50/g and 7.092 log TCID50/g and 6.453 log TCID50/g
- titer - trachea (SARS-CoV-2 [1]; day 5 p.i., 1 mg/kg): 0 log TCID50/g and 2.787 log TCID50/g
- titer - trachea (SARS-CoV-2 [1]; day 7 p.i.): 0 log TCID50/g
- RNA - lung (SARS-CoV-2 [1]; day 7 p.i., 1 mg/kg): 0.6096 SARS-CoV-2 RNA copies/β actin RNA copies and 0.8217 SARS-CoV-2 RNA copies/β actin RNA copies and 0.4837 SARS-CoV-2 RNA copies/β actin RNA copies and 0.3749 SARS-CoV-2 RNA copies/β actin RNA copies and 1.469 SARS-CoV-2 RNA copies/β actin RNA copies
- RNA - trachea (SARS-CoV-2 [1]; day 7 p.i., 1 mg/kg): 0.3702 SARS-CoV-2 RNA copies/β actin RNA copies and -0.0169 SARS-CoV-2 RNA copies/β actin RNA copies and -0.6383 SARS-CoV-2 RNA copies/β actin RNA copies and 0.1661 SARS-CoV-2 RNA copies/β actin RNA copies and 0.09095 SARS-CoV-2 RNA copies/β actin RNA copies
- titer - lung (SARS-CoV-2 [1]; day 7 p.i., 1 mg/kg): 0 log TCID50/g and 1.7736 log TCID50/g
- viral load in lungs versus untreated group (in words) (SARS-CoV-2 [1]; hamsters, day 5 p.i., 1 mg/kg): lower SARS-CoV-2 titers in the treated group compared to the untreated group; also recorded: lower viral loads in their trachea and lungs
- viral load in trachea versus untreated group (in words) (SARS-CoV-2 [1]; hamsters, day 5 p.i., 1 mg/kg): statistically significant difference on TCID50 viral load in trachea; also recorded: reduces viral load in trachea; also recorded: significant reduction of the viral load in trachea on day 5; also recorded: the decrease was only statistically significant in the trachea
- viral load in trachea versus untreated group (in words) (SARS-CoV-2 [1]; hamsters, day 5 p.i., listed as sulfonated Calpeptin, 1 mg/kg): reduces the viral load in the trachea
- impact on vesicle morphology / S-protein vesicle size (LC-HK2 cells): did not reveal significant differences; also recorded: no substantial impact on vesicle morphology
- body weight, individual data ([2]; G1 SARS-CoV-2 infected, 1 mg/kg s.c. daily, Day 1, 1 mg/kg): 142 g and 136 g and 131 g and 130 g and 132 g and 133 g and 125 g and 128 g and 123 g and 114 g and 117 g and 111 g
- body weight, individual data ([2]; G1 SARS-CoV-2 infected, 1 mg/kg s.c. daily, Day 2, 1 mg/kg): 139 g and 141 g and 136 g and 131 g and 128 g and 132 g and 123 g and 127 g and 120 g and 111 g and 116 g and 108 g
- body weight, individual data ([2]; G1 SARS-CoV-2 infected, 1 mg/kg s.c. daily, Day 3, 1 mg/kg): 138 g and 133 g and 132 g and 125 g and 128 g and 131 g and 123 g and 122 g and 126 g and 118 g and 121 g and 111 g and 115 g and 106 g
- body weight, individual data ([2]; G1 SARS-CoV-2 infected, 1 mg/kg s.c. daily, Day 4, 1 mg/kg): 126 g and 130 g and 121 g and 120 g and 118 g and 123 g and 111 g and 116 g and 104 g
- body weight, individual data ([2]; G1 SARS-CoV-2 infected, 1 mg/kg s.c. daily, Day 5, 1 mg/kg): 126 g and 129 g and 121 g and 119 g and 118 g and 111 g and 117 g and 104 g
- body weight, individual data ([2]; G1 SARS-CoV-2 infected, 1 mg/kg s.c. daily, Day 6, 1 mg/kg): 115 g and 118 g and 111 g and 116 g and 105 g
- body weight, individual data ([2]; G1 SARS-CoV-2 infected, 1 mg/kg s.c. daily, Day 7, 1 mg/kg): 117 g and 121 g and 112 g and 118 g and 106 g
- body weight, individual data ([2]; G4 mock infected (so in the source), Day 1): 155 g and 138 g and 130 g
- body weight, individual data ([2]; G4 mock infected (so in the source), Day 2): 156 g and 137 g and 130 g
- body weight, individual data ([2]; G4 mock infected (so in the source), Day 3): 157 g and 138 g and 131 g
- body weight, individual data ([2]; G4 mock infected (so in the source), Day 4): 158 g and 140 g and 130 g
- body weight, individual data ([2]; G4 mock infected (so in the source), Day 5): 159 g and 139 g and 131 g
- body weight, individual data ([2]; G4 mock infected (so in the source), Day 6): 160 g and 139 g and 130 g
- body weight, individual data ([2]; G4 mock infected (so in the source), Day 7): 162 g and 141 g and 131 g
- body weight, average ([2]; SARS-CoV-2 infected hamsters, 1 mg/kg s.c. daily, day 1): 96.7382 %, relative to day 0
- body weight, average ([2]; SARS-CoV-2 infected hamsters, 1 mg/kg s.c. daily, day 2): 95.2969 %, relative to day 0
- body weight, average ([2]; SARS-CoV-2 infected hamsters, 1 mg/kg s.c. daily, day 3): 94.3407 %, relative to day 0
- body weight, average ([2]; SARS-CoV-2 infected hamsters, 1 mg/kg s.c. daily, day 4): 93.4383 %, relative to day 0
- body weight, average ([2]; SARS-CoV-2 infected hamsters, 1 mg/kg s.c. daily, day 5): 93.2155 %, relative to day 0
- body weight, average ([2]; SARS-CoV-2 infected hamsters, 1 mg/kg s.c. daily, day 6): 93.1372 %, relative to day 0
- body weight, average ([2]; SARS-CoV-2 infected hamsters, 1 mg/kg s.c. daily, day 7): 94.5983 %, relative to day 0
- body weight, average ([2]; mock infected hamsters, 1 mg/kg s.c. daily, day 1): 97.4975 %, relative to day 0
- body weight, average ([2]; mock infected hamsters, 1 mg/kg s.c. daily, day 2): 98.3232 %, relative to day 0
- body weight, average ([2]; mock infected hamsters, 1 mg/kg s.c. daily, day 3): 98.7966 %, relative to day 0
- body weight, average ([2]; mock infected hamsters, 1 mg/kg s.c. daily, day 4): 99.2826 %, relative to day 0
- body weight, average ([2]; mock infected hamsters, 1 mg/kg s.c. daily, day 5): 100.017 %, relative to day 0
- body weight, average ([2]; mock infected hamsters, 1 mg/kg s.c. daily, day 6): 100.959 %, relative to day 0
- body weight, average ([2]; mock infected hamsters, 1 mg/kg s.c. daily, day 7): 101.896 %, relative to day 0
- CPE inhibition (%) (SARS-CoV-2 [3]; 0.0781 μM): 0% and 0.33%
- CPE inhibition (%) (SARS-CoV-2 [3]; 0.625 μM): 38.01% and 20.29%
- CPE inhibition (%) (SARS-CoV-2 [3]; 1.25 μM): 52.68% and 61.52%
- CPE inhibition (%) (SARS-CoV-2 [3]; 2.5 μM): 60.88% and 68.39%
- CPE inhibition (%) (SARS-CoV-2 [3]; 5 μM): 63.97% and 88.53%
- CPE inhibition (%) (SARS-CoV-2 [3]; 10 μM): 67.47% and 80.91%
- EC50 (SARS-CoV-2 [3]; VERO-CCL81, CellTiter-Glo, 48 h post-infection, read-out: CPE inhibition EC50): 700 nM
- reversibility of covalent bond to cathepsin (CatL): reversible
